Where two headings read alike, the source gives them in different places.
Tests used:
[1] = test system: P. falciparum 3D7 parasites; test: P. falciparum growth inhibition assay, 1-cycle (72 h treatment), SYBR DNA staining (library screen at 2 μg/mL and dose-response); format: cell-based, Plasmodium falciparum; settings: for activity at 2 µg/mL: Plasmodium falciparum
[2] = test system: P. falciparum 3D7 parasites; test: P. falciparum growth inhibition assay, 2-cycle (120 h treatment), delayed-death screen and dose-response; format: cell-based, Plasmodium falciparum; settings: for activity at 2 µg/mL: Plasmodium falciparum
[3] = test system: T. gondii RH strain (RH-Tub-eYFP) tachyzoites; test: microbe, parasite or virus in culture; format: cell-based, Toxoplasma gondii; settings: 72 h, 72 h; for percent parasite growth at 2 µg/mL: Toxoplasma gondii
[4] = T. gondii, screen at 2 μg/mL, replicate 1, read-out: Tg_72h_%Growth_Rep1
[5] = T. gondii, screen at 2 μg/mL, replicate 2, read-out: Tg_72h_%Growth_Rep2
[6] = library screen at 2 μg/mL, 72 h, % growth, replicate 1
[7] = library screen at 2 μg/mL, 72 h, % growth, replicate 2
[8] = library screen at 2 μg/mL, 120 h, % growth, replicate 1
[9] = library screen at 2 μg/mL, 120 h, % growth, replicate 2
[10] = library screen at 2 μg/mL, % growth, replicate 1
[11] = library screen at 2 μg/mL, % growth, replicate 2
[12] = 3D7, library screen at 2 μg/mL, 72 h, % growth, replicate 1, read-out: Pf_72h_%Growth_Rep1
[13] = 3D7, library screen at 2 μg/mL, 72 h, % growth, replicate 2, read-out: Pf_72h_%Growth_Rep2
[14] = 3D7, library screen at 2 μg/mL, 120 h, % growth, replicate 1, read-out: Pf_120h_%Growth_Rep1
[15] = 3D7, library screen at 2 μg/mL, 120 h, % growth, replicate 2, read-out: Pf_120h_%Growth_Rep2
[16] = library screen at 2 μg/mL, % growth, replicate 1, read-out: Tg_72h_%Growth_Rep1
[17] = library screen at 2 μg/mL, % growth, replicate 2, read-out: Tg_72h_%Growth_Rep2
[18] = P. falciparum 3D7, 72 h, parasite screen at 2 μg/mL, % growth, replicate 1
[19] = P. falciparum 3D7, 72 h, parasite screen at 2 μg/mL, % growth, replicate 2
[20] = P. falciparum 3D7, 120 h, parasite screen at 2 μg/mL, % growth, replicate 1
[21] = P. falciparum 3D7, 120 h, parasite screen at 2 μg/mL, % growth, replicate 2
[22] = T. gondii, parasite screen at 2 μg/mL, % growth, replicate 1
[23] = T. gondii, parasite screen at 2 μg/mL, % growth, replicate 2

CO[C@H]1C[C@@H]2CC[C@@H](C)[C@@](O)(O2)C(=O)C(=O)N2CCCC[C@H]2C(=O)O[C@H]([C@H](C)C[C@@H]2CC[C@@H](OC(=O)C(C)(CO)CO)[C@H](OC)C2)CC(=O)[C@H](C)/C=C(\C)[C@@H](O)[C@@H](OC)C(=O)[C@H](C)C[C@H](C)/C=C/C=C/C=C/1C [Temsirolimus]
activity at 2 µg/mL ([1]; 3D7, P. falciparum, 72 h, screen at 2 μg/mL, replicate 1, read-out: Pf_72h_%Growth_Rep1): 59.1% | activity at 2 µg/mL ([1]; 3D7, P. falciparum, 72 h, screen at 2 μg/mL, replicate 2, read-out: Pf_72h_%Growth_Rep2): 47.4% | activity at 2 µg/mL ([2]; 3D7, P. falciparum, 120 h, screen at 2 μg/mL, replicate 1, read-out: Pf_120h_%Growth_Rep1): 61.2% | activity at 2 µg/mL ([2]; 3D7, P. falciparum, 120 h, screen at 2 μg/mL, replicate 2, read-out: Pf_120h_%Growth_Rep2): 46.5% | percent parasite growth at 2 µg/mL [3, 4]: 97% | percent parasite growth at 2 µg/mL [3, 5]: 76.6%

CC(=O)N[C@H]1CCOC1=O [Acetyl-L-homoserine lactone]
Pf_72h_%Growth_Rep1 [1, 6]: 5.19% | Pf_72h_%Growth_Rep2 [1, 7]: 20.05% | Pf_120h_%Growth_Rep1 [2, 8]: 2.96% | Pf_120h_%Growth_Rep2 [2, 9]: 5.45% | Tg_72h_%Growth_Rep1 [3, 10]: 88.39% | Tg_72h_%Growth_Rep2 [3, 11]: 103.34%

C[C@@H](O)[C@H]1C(=O)N2C(C(=O)O)=C(S[C@@H]3CN[C@H](CNS(N)(=O)=O)C3)[C@H](C)[C@H]12 [Doripenem]
activity at 2 µg/mL [1, 12]: 81.9% | activity at 2 µg/mL [1, 13]: 66.8% | activity at 2 µg/mL [2, 14]: 85.1% | activity at 2 µg/mL [2, 15]: 121% | percent parasite growth at 2 µg/mL [3, 16]: 119% | percent parasite growth at 2 µg/mL [3, 17]: 89.3%

CCCCCCCCCCCC(=O)N[C@H]1CCOC1=O [Dodecanoyl-L-homoserine lactone]
Pf_72h_%Growth_Rep1 [1, 6]: 84.60% | Pf_72h_%Growth_Rep2 [1, 7]: 89.07% | Pf_120h_%Growth_Rep1 [2, 8]: 96.32% | Pf_120h_%Growth_Rep2 [2, 9]: 89.02% | Tg_72h_%Growth_Rep1 [3, 10]: 110.87% | Tg_72h_%Growth_Rep2 [3, 11]: 103.60%

COc1cc(C)c(C(=O)O)c(OC)c1 [BIA-O1659]
Pf_72h_%Growth_Rep1 [1, 18]: 84.80% | Pf_72h_%Growth_Rep2 [1, 19]: 98.06% | Pf_120h_%Growth_Rep1 [2, 20]: 91.75% | Pf_120h_%Growth_Rep2 [2, 21]: 145.28% | Tg_72h_%Growth_Rep1 [3, 22]: 135.87% | Tg_72h_%Growth_Rep2 [3, 23]: 85.39%

COc1ccc2c3c([nH]c2c1)C(C)(C)C=CN1C(=O)[C@H](C)NC(=O)/C1=C/3 [Cycloechinulin]
Pf_72h_%Growth_Rep1 ([1]; P. falciparum, 72 h, screen at 2 μg/mL, replicate 1): 63.19% | Pf_72h_%Growth_Rep2 ([1]; P. falciparum, 72 h, screen at 2 μg/mL, replicate 2): 64.05% | Pf_120h_%Growth_Rep1 ([2]; P. falciparum, 120 h, screen at 2 μg/mL, replicate 1): 51.02% | Pf_120h_%Growth_Rep2 ([2]; P. falciparum, 120 h, screen at 2 μg/mL, replicate 2): 53.71% | Tg_72h_%Growth_Rep1 ([3]; T. gondii, screen at 2 μg/mL, replicate 1): 136.66% | Tg_72h_%Growth_Rep2 ([3]; T. gondii, screen at 2 μg/mL, replicate 2): 103.07%

CC1(C)CCC[C@]2(C)[C@@H](CO)C(CO)=CC[C@@H]12 [Drimendiol]
Pf_72h_%Growth_Rep1 [1, 6]: 88.42% | Pf_72h_%Growth_Rep2 [1, 7]: 85.66% | Pf_120h_%Growth_Rep1 [2, 8]: 96.59% | Pf_120h_%Growth_Rep2 [2, 9]: 92.13% | Tg_72h_%Growth_Rep1 [3, 10]: 182.34% | Tg_72h_%Growth_Rep2 [3, 11]: 100.93%

O=C(O)/C=C/c1ccc(O)c(O)c1 [Caffeic acid]
activity at 2 µg/mL ([1]; 3D7, 72 h, P. falciparum, 72 h, screen at 2 μg/mL, replicate 1, read-out: Pf_72h_%Growth_Rep1): 83.7% | activity at 2 µg/mL ([1]; 3D7, 72 h, P. falciparum, 72 h, screen at 2 μg/mL, replicate 2, read-out: Pf_72h_%Growth_Rep2): 86% | activity at 2 µg/mL ([2]; 3D7, 120 h, P. falciparum, 120 h, screen at 2 μg/mL, replicate 1, read-out: Pf_120h_%Growth_Rep1): 144% | activity at 2 µg/mL ([2]; 3D7, 120 h, P. falciparum, 120 h, screen at 2 μg/mL, replicate 2, read-out: Pf_120h_%Growth_Rep2): 88.4% | percent parasite growth at 2 µg/mL [3, 4]: 101% | percent parasite growth at 2 µg/mL [3, 5]: 88.3%

CC1(C)CC[C@]2(C(=O)O)CC[C@]3(C)C(=CC[C@@H]4[C@@]5(C)C[C@@H](O)[C@H](O)[C@@](C)(CO)[C@@H]5CC[C@]43C)[C@@H]2C1 [Arjunolic acid]
activity at 2 µg/mL [1, 12]: 75.9% | activity at 2 µg/mL [1, 13]: 83% | activity at 2 µg/mL [2, 14]: 72.4% | activity at 2 µg/mL [2, 15]: 76.3% | percent parasite growth at 2 µg/mL [3, 16]: 85.6% | percent parasite growth at 2 µg/mL [3, 17]: 73.6%

CSc1cc(=O)n2c3ccccc3c3ccnc1c32 [BIA-M1959]
Pf_72h_%Growth_Rep1 [1, 18]: 72.92% | Pf_72h_%Growth_Rep2 [1, 19]: 92.02% | Pf_120h_%Growth_Rep1 [2, 20]: 177.81% | Pf_120h_%Growth_Rep2 [2, 21]: 100.67% | Tg_72h_%Growth_Rep1 [3, 22]: 88.90% | Tg_72h_%Growth_Rep2 [3, 23]: 111.29%
